These results are taken from US12030878B2 (BRISTOL-MYERS SQUIBB COMPANY, priority 2017, dated 2024).

Holding throughout (type): cell-based
One assay addresses T1, human TLR7 (Homo sapiens, UniProt Q9NYK1).
T1 construct: host or cells: HEK-Blue cells
T1 sequence (Q9NYK1 27-1049): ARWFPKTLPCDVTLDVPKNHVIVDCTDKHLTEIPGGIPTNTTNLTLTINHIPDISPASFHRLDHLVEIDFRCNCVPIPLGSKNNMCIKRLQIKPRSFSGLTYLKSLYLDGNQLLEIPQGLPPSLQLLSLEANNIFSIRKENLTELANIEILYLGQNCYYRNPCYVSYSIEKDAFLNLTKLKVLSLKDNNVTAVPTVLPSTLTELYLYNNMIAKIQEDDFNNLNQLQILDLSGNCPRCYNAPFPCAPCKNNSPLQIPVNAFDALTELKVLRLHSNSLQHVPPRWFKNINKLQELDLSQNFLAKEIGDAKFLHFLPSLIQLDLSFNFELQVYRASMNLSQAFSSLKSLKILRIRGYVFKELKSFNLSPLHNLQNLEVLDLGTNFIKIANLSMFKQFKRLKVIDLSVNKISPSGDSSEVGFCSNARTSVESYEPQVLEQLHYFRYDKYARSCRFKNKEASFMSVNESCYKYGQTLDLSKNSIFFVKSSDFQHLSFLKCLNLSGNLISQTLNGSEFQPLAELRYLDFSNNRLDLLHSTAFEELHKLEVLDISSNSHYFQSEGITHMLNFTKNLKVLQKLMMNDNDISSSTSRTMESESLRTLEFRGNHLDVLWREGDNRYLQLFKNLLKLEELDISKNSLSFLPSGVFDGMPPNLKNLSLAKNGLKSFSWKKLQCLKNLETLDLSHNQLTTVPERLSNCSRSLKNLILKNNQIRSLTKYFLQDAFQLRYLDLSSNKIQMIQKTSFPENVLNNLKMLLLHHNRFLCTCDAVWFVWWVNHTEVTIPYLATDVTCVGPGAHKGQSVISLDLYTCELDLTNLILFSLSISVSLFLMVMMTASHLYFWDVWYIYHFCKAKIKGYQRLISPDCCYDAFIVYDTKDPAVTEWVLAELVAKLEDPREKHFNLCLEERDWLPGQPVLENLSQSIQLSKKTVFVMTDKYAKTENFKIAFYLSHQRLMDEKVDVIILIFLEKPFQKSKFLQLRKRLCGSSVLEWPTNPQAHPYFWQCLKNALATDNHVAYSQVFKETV
Description: TLR7 inhibition reporter assay (HEK-Blue SEAP). As to conditions: HEK-Blue cells overexpressing human TLR7, stimulated with gardiquimod 7.5 μM, 22 hour incubation. The essentials:
(§1)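 SEAP read-out via HEK-Blue Detection medium after 22 h at 37 °C; percent inhibition relative to agonist-plus-DMSO and known-inhibitor wells. Agonists: TLR7 gardiquimod 7.5 μM, TLR8 R848 15.9 μM, TLR9 ODN2006 5 nM. Dose range 0.05 nM–50 μM, 30 min compound pre-treatment at RT.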
Background: A reporter such as luciferase makes a cellular process visible.

The target of a further assay is T2, human TLR8 (Homo sapiens, UniProt Q9NR97).
T2 construct: host or cells: HEK-Blue cells
T2 sequence (Q9NR97 27-1041): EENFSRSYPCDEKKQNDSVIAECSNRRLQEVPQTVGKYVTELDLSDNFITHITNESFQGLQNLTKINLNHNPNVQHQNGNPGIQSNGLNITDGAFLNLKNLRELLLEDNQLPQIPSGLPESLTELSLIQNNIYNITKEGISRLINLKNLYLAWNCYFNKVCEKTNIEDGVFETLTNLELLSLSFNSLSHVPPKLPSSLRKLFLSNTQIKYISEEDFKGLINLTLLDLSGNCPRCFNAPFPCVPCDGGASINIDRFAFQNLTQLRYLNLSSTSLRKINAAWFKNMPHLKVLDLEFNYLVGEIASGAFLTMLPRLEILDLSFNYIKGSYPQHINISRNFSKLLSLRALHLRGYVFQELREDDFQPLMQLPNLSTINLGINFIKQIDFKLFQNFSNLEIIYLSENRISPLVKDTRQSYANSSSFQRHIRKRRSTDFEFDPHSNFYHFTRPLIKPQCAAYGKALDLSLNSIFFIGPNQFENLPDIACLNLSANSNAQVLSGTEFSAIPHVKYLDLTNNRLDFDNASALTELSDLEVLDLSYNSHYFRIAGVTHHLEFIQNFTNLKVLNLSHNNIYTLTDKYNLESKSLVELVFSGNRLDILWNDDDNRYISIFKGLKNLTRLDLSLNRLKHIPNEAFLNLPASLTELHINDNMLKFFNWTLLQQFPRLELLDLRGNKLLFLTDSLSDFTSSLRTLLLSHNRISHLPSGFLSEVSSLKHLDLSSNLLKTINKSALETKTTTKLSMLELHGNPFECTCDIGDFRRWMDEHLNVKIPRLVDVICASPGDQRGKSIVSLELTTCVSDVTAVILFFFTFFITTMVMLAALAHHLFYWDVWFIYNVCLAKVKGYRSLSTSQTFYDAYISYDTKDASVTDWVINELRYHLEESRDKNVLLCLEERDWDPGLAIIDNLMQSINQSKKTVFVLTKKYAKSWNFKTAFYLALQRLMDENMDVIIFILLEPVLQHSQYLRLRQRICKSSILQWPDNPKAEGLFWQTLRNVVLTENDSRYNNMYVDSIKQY
Description: TLR8 inhibition reporter assay (HEK-Blue SEAP). As to conditions: HEK-Blue cells overexpressing human TLR8, stimulated with R848 15.9 μM, 22 hour incubation. The essentials:
as §1

A further assay has as its target T3, human TLR9 (Homo sapiens, UniProt Q9NR96).
T3 construct: host or cells: HEK-Blue cells
T3 sequence (Q9NR96 26-1032): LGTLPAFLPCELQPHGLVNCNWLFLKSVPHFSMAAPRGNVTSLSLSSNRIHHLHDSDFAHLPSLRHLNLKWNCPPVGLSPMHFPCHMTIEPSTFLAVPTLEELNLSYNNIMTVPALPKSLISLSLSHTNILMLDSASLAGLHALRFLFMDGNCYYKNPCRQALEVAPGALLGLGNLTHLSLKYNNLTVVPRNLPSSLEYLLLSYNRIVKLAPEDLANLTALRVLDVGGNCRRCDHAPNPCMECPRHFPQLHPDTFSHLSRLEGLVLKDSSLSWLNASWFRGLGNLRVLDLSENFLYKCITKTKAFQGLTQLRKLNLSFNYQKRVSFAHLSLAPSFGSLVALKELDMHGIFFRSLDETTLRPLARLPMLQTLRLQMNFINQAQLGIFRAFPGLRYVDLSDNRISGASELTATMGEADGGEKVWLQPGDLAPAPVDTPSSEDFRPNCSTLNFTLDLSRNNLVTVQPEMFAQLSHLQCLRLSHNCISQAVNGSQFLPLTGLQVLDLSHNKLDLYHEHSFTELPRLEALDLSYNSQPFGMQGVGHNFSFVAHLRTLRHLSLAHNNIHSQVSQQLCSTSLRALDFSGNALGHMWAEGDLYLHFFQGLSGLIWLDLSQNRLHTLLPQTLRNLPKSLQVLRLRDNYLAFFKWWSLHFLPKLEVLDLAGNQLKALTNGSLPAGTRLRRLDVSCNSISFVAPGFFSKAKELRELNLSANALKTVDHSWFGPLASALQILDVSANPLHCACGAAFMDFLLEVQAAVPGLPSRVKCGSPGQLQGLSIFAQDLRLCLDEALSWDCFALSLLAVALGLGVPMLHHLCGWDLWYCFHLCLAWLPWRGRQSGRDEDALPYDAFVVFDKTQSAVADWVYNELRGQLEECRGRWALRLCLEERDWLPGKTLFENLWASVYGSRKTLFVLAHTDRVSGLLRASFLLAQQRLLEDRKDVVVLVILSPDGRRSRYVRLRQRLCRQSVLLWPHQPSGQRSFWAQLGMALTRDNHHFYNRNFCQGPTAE
The assay can be described thus: TLR9 inhibition reporter assay (HEK-Blue SEAP). Conditions: HEK-Blue cells overexpressing human TLR9, stimulated with ODN2006 5 nM, 22 hour incubation. The essentials:
as §1

The term IC50 denotes the midpoint of a concentration-inhibition curve. For `COc1ccc(-c2[nH]c3ccc(OCC(=O)N[C@@H]4CCCC[C@H]4N)cc3c2C(C)C)cc1OC` [Example 130, N-((1R,2R)-2-aminocyclohexyl)-2-((2-(3,4-dimethoxyphenyl)-3-isopropyl-1H-indol-5-yl)oxy)acetamide], the IC50 at human TLR7 amounted to 398 nM; at human TLR8 it was 18.7 nM; at human TLR9, 2060 nM.
The matching figures for `COc1ccc(-c2[nH]c3ccc(OCC(=O)NC4CCC(N)CC4)cc3c2C(C)C)cc1OC` (stereo not drawn) [Example 131, N-(4-aminocyclohexyl)-2-((2-(3,4-dimethoxyphenyl)-3-isopropyl-1H-indol-5-yl)oxy) acetamide]: 293 nM, 18.3 nM and 908 nM.
For the compound `COc1ccc(-c2[nH]c3ccc(OCC(=O)N4C[C@H]5C[C@@H]4CN5)cc3c2C(C)C)cc1OC` [Example 132, 1-((1R,4R)-2,5-diazabicyclo[2.2.1]heptan-2-yl)-2-((2-(3,4-dimethoxyphenyl)-3-isopropyl-1H-indol-5-yl)oxy)ethan-1-one], the IC50 against human TLR7 was 58.6 nM; on human TLR8, 15.8 nM; on human TLR9 it was 2010 nM.
The matching figures for `COc1ccc(-c2[nH]c3ccc(OCC(=O)NCC4(O)CCN(C)CC4)cc3c2C(C)C)cc1OC` [Example 133, 2-((2-(3,4-dimethoxyphenyl)-3-isopropyl-1H-indol-5-yl)oxy)-N-((4-hydroxy-1-methylpiperidin-4-yl)methyl)acetamide]: 557 nM, 19.7 nM and 861 nM.
The matching figures for `COc1ccc(-c2[nH]c3ccc(OCC(=O)N[C@H]4CCNC4)cc3c2C(C)C)cc1OC` [Example 134, (S)-2-((2-(3,4-dimethoxyphenyl)-3-isopropyl-1H-indol-5-yl)oxy)-N-(pyrrolidin-3-yl)acetamide]: 98 nM, 11.6 nM and 359 nM.
On to `COc1ccc(-c2[nH]c3ccc(OCC(=O)N[C@@H]4CCNC4)cc3c2C(C)C)cc1OC` [Example 135, (R)-2-((2-(3,4-dimethoxyphenyl)-3-isopropyl-1H-indol-5-yl)oxy)-N-(pyrrolidin-3-yl)acetamide], for which the IC50 is 185 nM against human TLR7, 24.1 nM against human TLR8 and 1820 nM at human TLR9.
In the same order, the values of `COc1ccc(-c2[nH]c3ccc(OCC(=O)NC4CCNCC4)cc3c2C(C)C)cc1OC` [Example 136, 2-((2-(3,4-dimethoxyphenyl)-3-isopropyl-1H-indol-5-yl)oxy)-N-(piperidin-4-yl)acetamide] are 126 nM, 37 nM and 777 nM.
The matching figures for `COc1ccc(-c2[nH]c3ccc(OCC(=O)N[C@@H]4CCCNC4)cc3c2C(C)C)cc1OC` [Example 137, (R)-2-((2-(3,4-dimethoxyphenyl)-3-isopropyl-1H-indol-5-yl)oxy)-N-(piperidin-3-yl)acetamide]: 142 nM, 9.1 nM and 2140 nM.
Consider `COc1ccc(-c2[nH]c3ccc(OCC(=O)N4CCC(OC5CCNCC5)CC4)cc3c2C(C)C)cc1OC` [Example 138, 2-((2-(3,4-dimethoxyphenyl)-3-isopropyl-1H-indol-5-yl)oxy)-1-(4-(piperidin-4-yloxy)piperidin-1-yl)ethan-1-one], for which the IC50 on human TLR7 came to 281 nM; on human TLR8, 24.7 nM; against human TLR9, 1920 nM.
The matching figures for `COc1ccc(-c2[nH]c3ccc(OCC(=O)NC4CCN(C(C)C)CC4)cc3c2C(C)C)cc1OC` [Example 139, 2-((2-(3,4-dimethoxyphenyl)-3-isopropyl-1H-indol-5-yl)oxy)-N-(1-isopropylpiperidin-4-yl)acetamide]: 623 nM, 83.2 nM and 2440 nM.
